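Method: 48-hour compound exposure of cells in 96-well plates, five concentrations, linear interpolation of endpoints. The concentration for 50% growth inhibition is given as GI50.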 Active and inactive are the calls of the source. Cut-off read from the data, not from the text of the source: active = GI50 up to about 1.1 µM and inactive = higher.
How the values were obtained:
Test in all cases: inhibition of tumour cell growth, NCI panel, 48 h
MDA-MB-435 = test system: MDA-MB-435
UACC-62 = test system: UACC-62
OVCAR-4 = test system: OVCAR-4
SK-OV-3 = test system: SK-OV-3
HT-29 = test system: HT-29
OVCAR-5 = test system: OVCAR-5
SW-620 = test system: SW-620
ACHN = test system: ACHN
NCI-H23 = test system: NCI-H23
OVCAR-8 = test system: OVCAR-8
OVCAR-3 = test system: OVCAR-3
Hs-578T = test system: Hs-578T
EKVX = test system: EKVX
COLO 205 = test system: COLO 205
LOX IMVI = test system: LOX IMVI
CAKI-1 = test system: CAKI-1
UACC-257 = test system: UACC-257
T47D = test system: T47D
M14 = test system: M14
HCT-15 = test system: HCT-15
SF-539 = test system: SF-539
U-251 = test system: U-251
Malme-3M = test system: Malme-3M
IGROV-1 = test system: IGROV-1
786-0 = test system: 786-0
SK-MEL-5 = test system: SK-MEL-5
NCI-H522 = test system: NCI-H522
KM12 = test system: KM12
MCF7 = test system: MCF7
A498 = test system: A498
SK-MEL-28 = test system: SK-MEL-28
NCI-H460 = test system: NCI-H460
BT-549 = test system: BT-549
K562 = test system: K562
MDA-N = test system: MDA-N
NCI-H226 = test system: NCI-H226
RXF 393 = test system: RXF 393
CCRF-CEM = test system: CCRF-CEM
MOLT-4 = test system: MOLT-4
NCI/ADR-RES = test system: NCI/ADR-RES
HOP-62 = test system: HOP-62
A549 = test system: A549
SF-268 = test system: SF-268
DU-145 = test system: DU-145
RPMI-8226 = test system: RPMI-8226
SN12C = test system: SN12C
HL-60 = test system: HL-60
SNB-75 = test system: SNB-75
HCT-116 = test system: HCT-116
MDA-MB-231 = test system: MDA-MB-231
HCC 2998 = test system: HCC 2998
SK-MEL-2 = test system: SK-MEL-2
SR = test system: SR
PC-3 = test system: PC-3
SF-295 = test system: SF-295
TK-10 = test system: TK-10
SNB-19 = test system: SNB-19
HOP-92 = test system: HOP-92
UO-31 = test system: UO-31

## CCOP(=O)(OCC)/C(=C/n1c(=S)[nH]c2ccccc21)C(=O)OC
MDA-MB-435
  GI50: > 100 µM (inactive)
UACC-62
  GI50: > 100 µM (inactive)
OVCAR-4
  GI50: 45.1 µM (inactive)
SK-OV-3
  GI50: > 100 µM (inactive)
HT-29
  GI50: > 100 µM (inactive)
OVCAR-5
  GI50: > 100 µM (inactive)
SW-620
  GI50: > 100 µM (inactive)
ACHN
  GI50: > 100 µM (inactive)
NCI-H23
  GI50: > 100 µM (inactive)
OVCAR-8
  GI50: > 100 µM (inactive)
OVCAR-3
  GI50: 31.1 nM (active)
Hs-578T
  GI50: 95.1 µM (inactive)
EKVX
  GI50: > 100 µM (inactive)
COLO 205
  GI50: > 100 µM (inactive)
LOX IMVI
  GI50: > 100 µM (inactive)
CAKI-1
  GI50: > 100 µM (inactive)
UACC-257
  GI50: > 100 µM (inactive)
T47D
  GI50: > 100 µM (inactive)
M14
  GI50: > 100 µM (inactive)
HCT-15
  GI50: 11.7 µM
SF-539
  GI50: > 100 µM (inactive)
U-251
  GI50: > 100 µM (inactive)
Malme-3M
  GI50: > 100 µM (inactive)
IGROV-1
  GI50: > 100 µM (inactive)
786-0
  GI50: > 100 µM (inactive)
SK-MEL-5
  GI50: > 100 µM (inactive)
NCI-H522
  GI50: > 100 µM (inactive)
KM12
  GI50: > 100 µM (inactive)
MCF7
  GI50: > 100 µM (inactive)
A498
  GI50: > 100 µM (inactive)
SK-MEL-28
  GI50: > 100 µM (inactive)
NCI-H460
  GI50: 10 µM (inactive)
BT-549
  GI50: > 100 µM (inactive)
K562
  GI50: > 100 µM (inactive)
MDA-N
  GI50: > 100 µM (inactive)
NCI-H226
  GI50: > 100 µM (inactive)
RXF 393
  GI50: > 100 µM (inactive)
CCRF-CEM
  GI50: > 100 µM (inactive)
MOLT-4
  GI50: > 100 µM (inactive)
NCI/ADR-RES
  GI50: > 100 µM (inactive)
HOP-62
  GI50: > 100 µM (inactive)
A549
  GI50: > 100 µM (inactive)
SF-268
  GI50: > 100 µM (inactive)
DU-145
  GI50: > 100 µM (inactive)
RPMI-8226
  GI50: > 100 µM (inactive)
SN12C
  GI50: > 100 µM (inactive)
HL-60
  GI50: > 100 µM (inactive)
SNB-75
  GI50: 34.4 µM (inactive)
HCT-116
  GI50: > 100 µM (inactive)
MDA-MB-231
  GI50: > 100 µM (inactive)
HCC 2998
  GI50: 51.9 µM (inactive)
SK-MEL-2
  GI50: > 100 µM (inactive)
SR
  GI50: > 100 µM (inactive)
PC-3
  GI50: > 100 µM (inactive)
SF-295
  GI50: > 100 µM (inactive)

## COC(=O)C(CCSC)NC(=O)CNC(=O)CSc1nnc(COc2ccc(Cl)cc2)n1-c1ccccc1 (configuration not stated)
MDA-MB-435
  GI50: 17.9 µM (inactive)
UACC-62
  GI50: 16.7 µM (inactive)
OVCAR-4
  GI50: 19.3 µM (inactive)
SK-OV-3
  GI50: 18.1 µM (inactive)
HT-29
  GI50: 17.7 µM (inactive)
OVCAR-5
  GI50: 19 µM (inactive)
SW-620
  GI50: 20.3 µM (inactive)
TK-10
  GI50: 17.6 µM (inactive)
ACHN
  GI50: 17 µM (inactive)
NCI-H23
  GI50: 16.6 µM (inactive)
Hs-578T
  GI50: 22.3 µM (inactive)
COLO 205
  GI50: 18.2 µM (inactive)
LOX IMVI
  GI50: 11.6 µM (inactive)
UACC-257
  GI50: 18.3 µM (inactive)
T47D
  GI50: 18.4 µM (inactive)
M14
  GI50: 19.5 µM (inactive)
HCT-15
  GI50: 18.3 µM
SF-539
  GI50: 18.7 µM (inactive)
U-251
  GI50: 17.3 µM (inactive)
Malme-3M
  GI50: 18 µM (inactive)
IGROV-1
  GI50: 16.6 µM (inactive)
786-0
  GI50: 16 µM (inactive)
SK-MEL-5
  GI50: 17.3 µM (inactive)
SNB-19
  GI50: 69.3 µM (inactive)
KM12
  GI50: 20.2 µM (inactive)
MCF7
  GI50: 17.9 µM (inactive)
A498
  GI50: 29.1 µM (inactive)
SK-MEL-28
  GI50: 17.5 µM (inactive)
NCI-H460
  GI50: 17.5 µM (inactive)
BT-549
  GI50: 16.9 µM (inactive)
K562
  GI50: 26.5 µM (inactive)
MDA-N
  GI50: 18.6 µM (inactive)
NCI-H226
  GI50: 18.8 µM (inactive)
RXF 393
  GI50: 18.6 µM (inactive)
CCRF-CEM
  GI50: 7.83 µM (inactive)
MOLT-4
  GI50: 5.36 µM (inactive)
NCI/ADR-RES
  GI50: 82.2 µM (inactive)
HOP-62
  GI50: 17.1 µM (inactive)
A549
  GI50: 41.3 µM (inactive)
SF-268
  GI50: 17.1 µM (inactive)
DU-145
  GI50: 23 µM (inactive)
RPMI-8226
  GI50: 22.6 µM (inactive)
SN12C
  GI50: 18.4 µM (inactive)
HOP-92
  GI50: 17.6 µM (inactive)
HL-60
  GI50: 19.3 µM (inactive)
SNB-75
  GI50: 19.1 µM (inactive)
HCT-116
  GI50: 16.9 µM (inactive)
MDA-MB-231
  GI50: 16 µM (inactive)
HCC 2998
  GI50: 14 µM (inactive)
UO-31
  GI50: 10.4 µM (inactive)
SK-MEL-2
  GI50: 15.4 µM (inactive)
PC-3
  GI50: 16.6 µM (inactive)
